ChEMBL document CHEMBL2202954, “The effect of PLC-γ2 inhibitors on the growth of human tumour cells” (2012)

What was measured:
Format in all cases: functional
[1] = test system: MCF7; assay: Cytotoxicity against human MCF7 cells assessed as cellular growth at 10 uM by SRB assay
[2] = test system: PC-3; assay: Cytotoxicity against human PC3 cells assessed as cellular growth at 10 uM by SRB assay
[3] = test system: TK-10; assay: Cytotoxicity against human TK10 cells assessed as cellular growth at 10 uM by SRB assay
[4] = test system: ACHN; assay: Cytotoxicity against human ACHN cells assessed as cellular growth at 10 uM by SRB assay
[5] = Cytotoxicity against human NCI-ADR-RES cells assessed as cellular growth at 10 uM by SRB assay
[6] = test system: OVCAR-8; assay: Cytotoxicity against human OVCAR8 cells assessed as cellular growth at 10 uM by SRB assay
[7] = test system: UACC-257; assay: Cytotoxicity against human UACC257 cells assessed as cellular growth at 10 uM by SRB assay
[8] = test system: SK-MEL-28; assay: Cytotoxicity against human SK-MEL-28 cells assessed as cellular growth at 10 uM by SRB assay
[9] = test system: M14; assay: Cytotoxicity against human M14 cells assessed as cellular growth at 10 uM by SRB assay
[10] = test system: LOX IMVI; assay: Cytotoxicity against human LOXIMVI cells assessed as cellular growth at 10 uM by SRB assay
[11] = test system: U-251; assay: Cytotoxicity against human U251 cells assessed as cellular growth at 10 uM by SRB assay
[12] = test system: SF-268; assay: Cytotoxicity against human SF268 cells assessed as cellular growth at 10 uM by SRB assay
[13] = test system: SW-620; assay: Cytotoxicity against human SW620 cells assessed as cellular growth at 10 uM by SRB assay
[14] = test system: HCC 2998; assay: Cytotoxicity against human HCC2998 cells assessed as cellular growth at 10 uM by SRB assay
[15] = test system: NCI-H460; assay: Cytotoxicity against human NCI-H460 cells assessed as cellular growth at 10 uM by SRB assay
[16] = test system: NCI-H322M; assay: Cytotoxicity against human NCI-H322M cells assessed as cellular growth at 10 uM by SRB assay
[17] = test system: HOP-62; assay: Cytotoxicity against human HOP62 cells assessed as cellular growth at 10 uM by SRB assay
[18] = test system: A549; assay: Cytotoxicity against human A549 cells assessed as cellular growth at 10 uM by SRB assay
[19] = test system: RPMI-8226; assay: Cytotoxicity against human RPMI8226 cells assessed as cellular growth at 10 uM by SRB assay
[20] = test system: K562; assay: Cytotoxicity against human K562 cells assessed as cellular growth at 10 uM by SRB assay

Row | Compound | Activity [1] [%] | Activity [2] [%] | Activity [3] [%] | Activity [4] [%] | Activity [5] [%] | Activity [6] [%] | Activity [7] [%] | Activity [8] [%] | Activity [9] [%] | Activity [10] [%] | Activity [11] [%] | Activity [12] [%] | Activity [13] [%] | Activity [14] [%] | Activity [15] [%] | Activity [16] [%] | Activity [17] [%] | Activity [18] [%] | Activity [19] [%] | Activity [20] [%]
1 | Cc1cc(C)c(NC(=O)c2sc3nc4c(cc3c2N)C(=O)CCC4)c(C)c1 | 16.79 | 23.46 | 44.75 | 55.26 | -8.04 | 45.64 | 48.69 | 55.98 | 16.41 | 50.61 | 21.13 | 38.6 | 15.59 | 30.95 | 6.43 | 56.34 | 36.92 | 23.05 | 31.83 | 19.79
2 | Nc1c(C(=O)Nc2ccc(Cl)c(Cl)c2)sc2nc(-c3cccs3)ccc12 | 87.77 | 85.43 | 87.49 | 99.6 | 75.02 | 98.27 | 91.24 | 97.42 | 87.97 | 43.3 | 83.86 | 85.77 | 105.33 | 98.35 | 103.53 | 95.09 | 100.28 | 54.62 | 87.02 | 86.57
3 | O=C(NCCc1ccc(Cl)cc1)c1[nH]c2ccccc2c1Cl | 78.35 | 88.9 | 160.82 | 99.57 | 100.24 | 96.34 | 100.48 | 109.77 | 98.43 | 96.1 | 100.14 | 97.34 | 92.87 | 102.32 | 93.16 | 106.64 | 85.04 | 92.96 | 96.69 | 67.44
4 | CC1(C)CCc2cc(-c3ccn(S(=O)(=O)c4ccc(Cl)cc4)n3)ccc2O1 | 71.27 | 56.8 | 76.99 | 89.36 | 69.31 | 86.61 | 64.88 | 94.67 | 80.11 | 72.15 | 74.2 | 90.72 | 87.74 | 94.3 | 73.79 | 94.19 | 92.92 | 67.37 | 52.06 | 52.43
5 | O=C(Nc1nc2ccc(Cl)cc2s1)c1ccc(Cl)cc1Cl | 98.4 | 97.1 | 88.34 | 109.65 | 98.55 | 97.79 | 95.43 | 107.5 | 115.13 | 98.46 | 93.57 | 111.47 | 111.18 | 97.08 | 100.4 | 105.38 | 106.54 | 95.4 | 91.09 | 86.31
6 | Cc1ccc(NC(=O)c2sc3nc(-c4cccs4)ccc3c2N)cc1C | 109.1 | 101.43 | 87 | 125.53 | 102.93 | 102.12 | 106.65 | 113.95 | 114.64 | 101.98 | 101.86 | 107.88 | 101.23 | 105.35 | 98.65 | 123.82 | 103.01 | 96.75 | 103.98 | 90.31
7 | Clc1ccc(-c2nc(-c3cccs3)no2)c(Cl)c1 | 29.22 | 83.22 | 71.42 | 99.79 | 102.9 | 97.12 | 76.15 | 103.74 | 100.46 | 103.49 | 90.09 | 99.25 | 88.07 | 66.03 | 92.07 | 120.06 | 84.92 | 91.44 | 86.03 | 96.15
8 | O=C1N=C(c2ccccc2)S/C1=C\c1ccc2c(c1)OCO2 | 101.6 | 85.65 | 110.48 | 99.6 | 107.06 | 96.76 | 92.39 | 106.02 | 111.64 | 102.92 | 90.93 | 95.75 | 89.42 | 118.49 | 96.54 | 108.21 | 94.43 | 95.78 | 92.67 | 73.5
9 | Cc1ccc(Cl)cc1NC(=O)c1sc2nc3c(cc2c1N)C(=O)CCC3 | 35.55 | 55.81 | 96.55 | 55.94 | 43.81 | 89.97 | 44.88 | 67.01 | 62.9 | 68.07 | 59.13 | 74.86 | 36.54 | 74.86 | 28.15 | 95.72 | 60.95 | 53.86 | 95.05 | 33.61
10 | COc1ccc2[nH]c(C(=O)NCc3ccccc3)cc2c1 | 83.2 | 102.32 | 120.94 | 94.48 | 102.25 | 102.92 | 103.04 | 110.55 | 104.15 | 103.84 | 98.45 | 114.89 | 107.28 | 104.4 | 110.92 | 90.03 | 104.71 | 100.34 | 90.52 | 92.68
11 | O=C(Nc1nc2ccccc2s1)c1ccc(F)cc1 | 68.1 | 96.56 | 125.36 | 98.03 | 95.74 | 109.5 | 107.84 | 113.63 | 109.51 | 100.61 | 99.72 | 114.42 | 112.1 | 69.88 | 69.18 | 92.49 | 106.04 | 98.36 | 88.45 | 89.96
12 | O=S(=O)(Oc1ccc(-c2cnc3ccccc3n2)cc1)c1ccccc1 | 94.53 | 89.87 | 82.7 | 103.61 | 96.02 | 100.22 | 100.15 | 110.13 | 106.54 | 95.98 | 92.1 | 98.77 | 99.76 | 99.83 | 110.82 | 107.81 | 106.15 | 95.36 | 87.36 | 81.89
13 | Cc1ccc(S(=O)(=O)NC2=NC(=O)/C(=C\c3ccccc3)S2)cc1 | 97.41 | 111.74 | 104.1 | 103.63 | 108.06 | 102.48 | 104.4 | 114.12 | 110.84 | 99.09 | 98.58 | 99.46 | 109.53 | 106.96 | 119.27 | 114.86 | 100.56 | 103.33 | 104.04 | 94.57
14 | Clc1cccc(-c2nc(-c3cccs3)no2)c1 | 33.74 | 84.44 | 74.63 | 101.08 | 103.45 | 101.14 | 86.41 | 111.9 | 105.36 | 94.7 | 84.62 | 102.09 | 91.04 | 102.03 | 97.36 | 99.44 | 85.92 | 94.77 | 95.28 | 100.73
15 | N#Cc1ccc(-n2nnc3ccccc32)cc1C#N | 82.05 | 100.51 | 133.56 | 102.68 | 100.66 | 99.01 | 89.4 | 104.11 | 106.26 | 99.41 | 91.31 | 105 | 94.36 | 103.78 | 106.55 | 111.4 | 94.62 | 87.19 | 100.67 | 92.97
16 | Cc1ccccc1NC(=O)c1sc2nc3c(cc2c1N)C(=O)CCC3 | 21.69 | 30.33 | 81.15 | 49.27 | 22.58 | 78.59 | 60.99 | 52.79 | 41.54 | 47.43 | 48.96 | 65.36 | 25.37 | 67 | 15.33 | 71.39 | 38.2 | 37.59 | 67.19 | 22.15
17 | O=C(Nc1nc2ccc(Cl)cc2s1)c1ccc(Cl)cc1 | 99.61 | 89.01 | 131.87 | 96.94 | 100.28 | 98.61 | 94.31 | 109.14 | 106.22 | 98.77 | 94.55 | 112.46 | 103.76 | 106.96 | 98.55 | 111.02 | 103.16 | 94.26 | 95.05 | 96.27
